Laboratory results reported in ChEMBL document CHEMBL1667832, “Potent and selective cyclohexyl-derived imidazopyrazine insulin-like growth factor 1 receptor inhibitors with in vivo efficacy” (Bioorg Med Chem Lett, 2011).
pIC50: −log10 of the molar value.

Tests used:
[1] = AUC in mouse at 5 mg/kg, po; assay type: ADME, organism-based; set-up: dose 5 mg/kg, route oral; details: plasma
[2] = Clearance in mouse at 2 mg/kg, iv; assay type: ADME, organism-based; set-up: dose 2 mg/kg, route intravenous; details: in vivo
[3] = Permeability of the compound at pH 7.4 by PAMPA; assay type: ADME; details: read-out: permeability
[4] = Cmax in mouse at 5 mg/kg, po; assay type: ADME, organism-based; set-up: dose 5 mg/kg, route oral; details: in vivo
[5] = Permeability of the compound at pH 5 by PAMPA; assay type: ADME; details: read-out: permeability
[6] = Volume of distribution at steady state in mouse at 2 mg/kg, iv; assay type: ADME, organism-based; set-up: dose 2 mg/kg, route intravenous; details: in vivo, read-out: Vdss
[7] = Oral bioavailability in mouse at 5 mg/kg; assay type: ADME, organism-based; details: in vivo
[8] = Oral bioavailability in mouse at 25 mg/kg; assay type: ADME, organism-based; details: in vivo
[9] = Clearance in mouse at 5 mg/kg, iv; assay type: ADME, organism-based; set-up: dose 5 mg/kg, route intravenous; details: in vivo
[10] = Cmax in mouse at 25 mg/kg, po; assay type: ADME, organism-based; set-up: dose 25 mg/kg, route oral; details: in vivo
[11] = Volume of distribution at steady state in mouse at 5 mg/kg, iv; assay type: ADME, organism-based; set-up: dose 5 mg/kg, route intravenous; details: in vivo, read-out: Vdss
[12] = AUC in mouse at 25 mg/kg, po; assay type: ADME, organism-based; set-up: dose 25 mg/kg, route oral; details: plasma
[13] = Physiological stability of the compound in simulated intestinal fluid assessed as formation of 4-(8-amino-1-(8-fluoro-2-phenylquinolin-7-yl)imidazo[1,5-a]pyrazin-3-yl)cyclohexanecarboxylic acid; assay type: physicochemical; details: simulated gi fluid
Cytochrome P450 3A4 = Cytochrome P450 3A4 (Homo sapiens, UniProt P08684); test: Inhibition of CYP3A4; assay type: ADME
Sequence of Cytochrome P450 3A4 (P08684 whole entry): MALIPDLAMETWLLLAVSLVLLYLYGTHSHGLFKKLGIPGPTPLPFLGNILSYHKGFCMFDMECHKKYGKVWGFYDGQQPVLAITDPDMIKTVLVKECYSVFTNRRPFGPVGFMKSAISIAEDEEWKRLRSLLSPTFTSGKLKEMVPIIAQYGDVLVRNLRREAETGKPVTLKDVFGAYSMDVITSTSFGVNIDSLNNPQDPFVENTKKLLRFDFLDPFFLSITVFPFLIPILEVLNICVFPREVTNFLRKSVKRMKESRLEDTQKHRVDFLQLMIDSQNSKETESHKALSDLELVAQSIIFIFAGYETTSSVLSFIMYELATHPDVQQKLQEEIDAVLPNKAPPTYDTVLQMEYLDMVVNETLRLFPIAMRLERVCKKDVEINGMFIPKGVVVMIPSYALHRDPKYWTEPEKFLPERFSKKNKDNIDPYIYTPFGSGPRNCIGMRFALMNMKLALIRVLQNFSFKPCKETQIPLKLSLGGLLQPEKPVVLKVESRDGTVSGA

Cytochrome P450 2C19 = Cytochrome P450 2C19 (Homo sapiens, UniProt P33261); test: Inhibition of CYP2C19; assay type: ADME
Sequence of Cytochrome P450 2C19 (P33261 whole entry): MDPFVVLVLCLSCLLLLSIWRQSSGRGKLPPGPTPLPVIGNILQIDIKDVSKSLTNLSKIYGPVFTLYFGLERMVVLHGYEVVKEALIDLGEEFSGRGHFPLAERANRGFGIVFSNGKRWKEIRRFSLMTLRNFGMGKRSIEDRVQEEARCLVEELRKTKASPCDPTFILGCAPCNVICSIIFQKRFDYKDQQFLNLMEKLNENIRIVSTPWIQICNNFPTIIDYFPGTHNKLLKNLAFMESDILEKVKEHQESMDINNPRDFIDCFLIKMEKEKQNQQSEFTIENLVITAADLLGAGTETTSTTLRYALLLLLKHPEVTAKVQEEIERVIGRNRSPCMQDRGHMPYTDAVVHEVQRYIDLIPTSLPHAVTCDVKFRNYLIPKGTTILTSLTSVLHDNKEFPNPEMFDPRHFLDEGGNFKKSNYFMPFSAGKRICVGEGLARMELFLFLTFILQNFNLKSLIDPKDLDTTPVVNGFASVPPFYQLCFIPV

[14] = Physiological stability of the compound in simulated intestinal fluids assessed as formation of 4-(8-amino-1-(8-fluoro-2-phenylquinolin-7-yl)imidazo[1,5-a]pyrazin-3-yl)cyclohexanecarboxylic acid at 2 uM; assay type: physicochemical; details: simulated gi fluid
[15] = Antitumor activity against human GEO cells xenografted in nu/nu CD-1 mouse assessed as tumor growth inhibition at 60 mg/kg, po qd for 14 days; assay type: functional; details: 336 h, read-out: TGI
Cytochrome P450 2D6 = Cytochrome P450 2D6 (Homo sapiens, UniProt P10635); test: Inhibition of CYP2D6; assay type: ADME
Sequence of Cytochrome P450 2D6 (P10635 whole entry): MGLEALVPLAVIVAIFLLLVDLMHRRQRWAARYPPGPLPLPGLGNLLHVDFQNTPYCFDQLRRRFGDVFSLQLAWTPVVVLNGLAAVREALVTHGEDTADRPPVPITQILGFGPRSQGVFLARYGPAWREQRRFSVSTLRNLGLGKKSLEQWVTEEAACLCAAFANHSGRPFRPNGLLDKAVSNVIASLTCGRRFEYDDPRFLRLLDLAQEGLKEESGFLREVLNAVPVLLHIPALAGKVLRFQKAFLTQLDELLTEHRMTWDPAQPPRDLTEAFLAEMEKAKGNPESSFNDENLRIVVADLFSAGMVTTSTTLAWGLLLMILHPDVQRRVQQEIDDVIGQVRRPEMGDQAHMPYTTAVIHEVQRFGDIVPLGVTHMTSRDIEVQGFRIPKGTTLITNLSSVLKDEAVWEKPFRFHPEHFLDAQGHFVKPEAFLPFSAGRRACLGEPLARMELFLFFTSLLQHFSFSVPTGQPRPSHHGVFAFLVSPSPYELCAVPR

Mus musculus [16] = test: Toxicity in human GEO cells xenografted nu/nu CD-1 mouse assessed as mortality at 60 mg/kg, po qd for 14 days; assay type: organism-based; set-up: dose 60 mg/kg, route oral; details: in vivo, 336 h
Cytochrome P450 2C9 = Cytochrome P450 2C9 (Homo sapiens, UniProt P11712); test: Inhibition of CYP2C9; assay type: ADME
Sequence of Cytochrome P450 2C9 (P11712 whole entry): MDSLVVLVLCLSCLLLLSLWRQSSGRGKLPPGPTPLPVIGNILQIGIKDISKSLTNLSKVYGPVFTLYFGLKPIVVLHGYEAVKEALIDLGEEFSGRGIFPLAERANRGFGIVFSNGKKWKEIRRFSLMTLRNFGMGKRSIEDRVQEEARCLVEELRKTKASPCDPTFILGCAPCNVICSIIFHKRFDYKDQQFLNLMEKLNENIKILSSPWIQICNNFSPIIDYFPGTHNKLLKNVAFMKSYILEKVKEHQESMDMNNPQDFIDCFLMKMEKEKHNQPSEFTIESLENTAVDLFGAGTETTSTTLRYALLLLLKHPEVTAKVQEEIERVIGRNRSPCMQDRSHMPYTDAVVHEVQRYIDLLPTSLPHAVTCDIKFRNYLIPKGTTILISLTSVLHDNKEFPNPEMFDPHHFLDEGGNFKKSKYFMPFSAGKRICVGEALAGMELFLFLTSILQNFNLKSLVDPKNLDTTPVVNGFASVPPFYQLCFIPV

[17] = Physiological stability of the compound in simulated gastric fluids assessed as formation of 4-(8-amino-1-(8-fluoro-2-phenylquinolin-7-yl)imidazo[1,5-a]pyrazin-3-yl)cyclohexanecarboxylic acid at 2 uM; assay type: physicochemical; details: simulated gi fluid
[18] = Genotoxicity in Salmonella Typhimurium by Ames test in presence of S9 fractions; assay type: toxicity, S9 Fraction; details: salmonella enterica subsp. enterica serovar typhimurium
Mus musculus [19] = test: Toxicity in human GEO cells xenografted nu/nu CD-1 mouse assessed as effect on blood glucose level at 60 mg/kg, po qd for 14 days; assay type: organism-based; set-up: dose 60 mg/kg, route oral; details: in vivo, 336 h
Cytochrome P450 1A2 = biological target: T1, Cytochrome P450 1A2 (Homo sapiens, UniProt P05177); test: Inhibition of CYP1A2; assay type: ADME
T1 sequence (P05177 whole entry): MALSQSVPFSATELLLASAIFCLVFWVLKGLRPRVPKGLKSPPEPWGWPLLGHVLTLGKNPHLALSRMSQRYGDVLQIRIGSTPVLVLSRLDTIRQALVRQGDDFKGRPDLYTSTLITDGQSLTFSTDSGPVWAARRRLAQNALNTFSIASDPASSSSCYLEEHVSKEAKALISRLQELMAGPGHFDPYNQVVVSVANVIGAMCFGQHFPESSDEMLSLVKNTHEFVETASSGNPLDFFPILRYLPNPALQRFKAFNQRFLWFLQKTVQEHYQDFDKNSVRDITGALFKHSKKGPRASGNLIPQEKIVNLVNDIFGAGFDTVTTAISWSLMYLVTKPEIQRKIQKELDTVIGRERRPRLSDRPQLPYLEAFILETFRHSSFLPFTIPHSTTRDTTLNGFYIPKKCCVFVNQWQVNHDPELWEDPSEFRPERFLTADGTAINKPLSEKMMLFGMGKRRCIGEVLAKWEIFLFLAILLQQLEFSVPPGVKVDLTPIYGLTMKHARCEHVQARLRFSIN

| Structure (SMILES) | Papp [3] [×10⁻⁶ cm/s] | Papp [5] [×10⁻⁶ cm/s] | bioavailability [8] [%] | clearance [9] [mL/min/kg] | Cmax [10] [nM] | Vd [11] [L/kg] | AUC [12] [ng·h/mL] | also measured |
| --- | --- | --- | --- | --- | --- | --- | --- | --- |
| Nc1nccn2c1c(-c1ccc3ccc(-c4ccccc4)nc3c1F)nc2[C@H]1CC[C@H](C(N)=O)CC1 | 63 | 45 | 24 | 38 | 1900 | 2.6 | 3570 | – |
| Nc1nccn2c1c(-c1ccc3ccc(-c4ccccc4)nc3c1F)nc2[C@H]1CC[C@H](C(=O)Nc2nc3ccccc3[nH]2)CC1 | 766 | 538 | 50 | 1 | 28000 | 0.43 | 158000 | pIC50 (Cytochrome P450 3A4): < 4.70; pIC50 (Cytochrome P450 2C19): < 4.70; Stability [14]: Stable; inhibition in vivo at 60 mg/kg [15]: 98%; pIC50 (Cytochrome P450 2D6): < 4.70; Activity (Mus musculus [16]): Non-toxic; pIC50 (Cytochrome P450 2C9): 5.01; Stability [17]: Stable; Activity [18]: Non-toxic; Activity (Mus musculus [19]): Non-toxic; pIC50 (Cytochrome P450 1A2): < 4.70 |

Further lines, with some results ahead:

| Papp [3] [×10⁻⁶ cm/s] | Papp [5] [×10⁻⁶ cm/s] | bioavailability [8] [%] | clearance [9] [mL/min/kg] | Cmax [10] [nM] | Vd [11] [L/kg] | AUC [12] [ng·h/mL] | Structure (SMILES) | also measured |
| --- | --- | --- | --- | --- | --- | --- | --- | --- |
| > 1000 | 880 | – | – | – | – | – | Nc1nccn2c1c(-c1ccc3ccc(-c4ccccc4)nc3c1F)nc2[C@H]1CC[C@H](CO)CC1 | AUC [1]: 100 ng·h/mL; clearance [2]: 197 mL/min/kg; Cmax [4]: 110 nM; Vd [6]: 7 L/kg; bioavailability [7]: 23% |
| > 1000 | > 1000 | 51 | 26 | 5500 | 2.8 | 7970 | Nc1nccn2c1c(-c1ccc3ccc(-c4ccccc4)nc3c1F)nc2[C@H]1CC[C@H](C(=O)O)CC1 | – |
| 86 | 73 | 5 | 73 | 130 | 3.2 | 297 | Nc1nccn2c1c(-c1ccc3ccc(-c4ccccc4)nc3c1F)nc2[C@H]1CC[C@H](C(=O)Nc2nncs2)CC1 | Stability [13]: Unstable |
